The nature of data set [1]: The drug is tested on Z-026 corresponding to metagenome with ENA study accession number: PRJEB37062 and ENA sample accession number: ERS12561825 for biotransformation under anaerobic condition. The drug concentrations were measured over 9 timepoints collected between 0 and 24 hours of incubation by liquid-chromatography-coupled mass spectrometry (LC–MS). The conditions noted are these: 2 µM.

A short description of data set [2]: The drug is tested on WLS-086 corresponding to human gut metagenome with ENA study accession number: PRJEB37062 and ENA sample accession number: ERS12561752 for biotransformation under anaerobic condition. The drug concentrations were measured over 9 timepoints collected between 0 and 24 hours of incubation by liquid-chromatography-coupled mass spectrometry (LC–MS). The conditions noted are these: 2 µM.

For data set [3] the following is noted: human gut metagenome, 24 h, 2 µM.
For data set [4] the following is noted: human gut metagenome, 24 h, 2 µM. The source holds these as a separate data set.
For data set [5] the following is noted: human gut metagenome, 24 h, 2 µM. This is another data set of the same source.
Data set [6] in a line: The drug is tested on WLS-052 corresponding to human gut metagenome with ENA study accession number: PRJEB37062 and ENA sample accession number: ERS12561747 for biotransformation under anaerobic condition. The drug concentrations were measured over 9 timepoints collected between 0 and 24 hours of incubation by liquid-chromatography-coupled mass spectrometry (LC–MS). The conditions noted are these: 2 µM.

For data set [7] the following is noted: human gut metagenome, 24 h, 2 µM. The source holds these as a separate data set.
The conditions of data set [8]: human gut metagenome, 24 h, 2 µM. This is another data set of the same source.
Data set [9] in a line: The drug is tested on WLS-370 corresponding to human gut metagenome with ENA study accession number: PRJEB37062 and ENA sample accession number: ERS12561793 for biotransformation under anaerobic condition. The drug concentrations were measured over 9 timepoints collected between 0 and 24 hours of incubation by liquid-chromatography-coupled mass spectrometry (LC–MS). The conditions noted are these: 2 µM.

Data set [10] in a line: The drug is tested on Z-014 corresponding to rat gut metagenome with ENA study accession number: PRJEB37062 and ENA sample accession number: ERS12561814 for biotransformation under anaerobic condition. The drug concentrations were measured over 9 timepoints collected between 0 and 24 hours of incubation by liquid-chromatography-coupled mass spectrometry (LC–MS). The conditions noted are these: 2 µM.

The conditions of data set [11]: human gut metagenome, 24 h, 2 µM. This is another data set of the same source.
The conditions of data set [12]: human gut metagenome, 24 h, 2 µM. The source holds these as a separate data set.
For data set [13] the following is noted: human gut metagenome, 24 h, 2 µM. This is another data set of the same source.
For data set [14] the following is noted: human gut metagenome, 24 h, 2 µM. The source holds these as a separate data set.
The nature of data set [15]: The drug is tested on Z-007 corresponding to rat gut metagenome with ENA study accession number: PRJEB37062 and ENA sample accession number: ERS12561807 for biotransformation under anaerobic condition. The drug concentrations were measured over 9 timepoints collected between 0 and 24 hours of incubation by liquid-chromatography-coupled mass spectrometry (LC–MS). The note with it: 2 µM.

Data set [16] is described as follows: The drug is tested on WLS-077 corresponding to human gut metagenome with ENA study accession number: PRJEB37062 and ENA sample accession number: ERS12561750 for biotransformation under anaerobic condition. The drug concentrations were measured over 9 timepoints collected between 0 and 24 hours of incubation by liquid-chromatography-coupled mass spectrometry (LC–MS). The note with it: 2 µM.

Data set [17] is described as follows: The drug is tested on Z-001 corresponding to mouse gut metagenome with ENA study accession number: PRJEB37062 and ENA sample accession number: ERS12561801 for biotransformation under anaerobic condition. The drug concentrations were measured over 9 timepoints collected between 0 and 24 hours of incubation by liquid-chromatography-coupled mass spectrometry (LC–MS). The note with it: 2 µM.

Data set [18] is described as follows: The drug is tested on WLS-010 corresponding to human gut metagenome with ENA study accession number: PRJEB37062 and ENA sample accession number: ERS12561743 for biotransformation under anaerobic condition. The drug concentrations were measured over 9 timepoints collected between 0 and 24 hours of incubation by liquid-chromatography-coupled mass spectrometry (LC–MS). The note with it: 2 µM.

For data set [19] the following is noted: human gut metagenome, 24 h, 2 µM. This is another data set of the same source.
The conditions of data set [20]: human gut metagenome, 24 h, 2 µM. The source holds these as a separate data set.

Data on six compounds can be found in ChEMBL document CHEMBL5724914, “Linking interpersonal differences in gut microbiota composition and drug biotransformation activity” (2024).
Note: call rule not given here.

On to `CN(C)C(=O)Oc1cc(OC(=O)N(C)C)cc(C(O)CNC(C)(C)C)c1` (stereo not given) [BAMBUTEROL], for which the “Bacterial Biotransformation” value was “Compound NOT metabolized” in data set [1]; “Compound metabolized” in [2]; “Compound metabolized” in data set [3]; “Compound metabolized” in data set [4]; “Compound metabolized” in data set [5]; “Compound NOT metabolized” in data set [6]. Also, the “Bacterial Biotransformation” value in data set [7] was “Compound metabolized”; in data set [8] it was “Compound metabolized”; in data set [9] it was “Compound NOT metabolized”; in data set [10] it was “Compound NOT metabolized”; in [11], “Compound NOT metabolized”; in [12] it was “Compound metabolized”. Also, the “Bacterial Biotransformation” value in data set [13] is “Compound NOT metabolized”; in data set [14], “Compound NOT metabolized”; in data set [15] it was “Compound NOT metabolized”; in [16], “Compound NOT metabolized”; in data set [17], “Compound metabolized”; in data set [18], “Compound NOT metabolized”. Further, the “Bacterial Biotransformation” value in [19] and in [20] was “Compound metabolized” throughout.

`CCc1oc2ccccc2c1C(=O)c1cc(Br)c(O)c(Br)c1` [BENZBROMARONE]: the “Bacterial Biotransformation” value in [1] was “Compound NOT metabolized”; in [2], “Compound metabolized”; in data set [3], “Compound metabolized”; in data set [4], “Compound metabolized”; in data set [5] it was “Compound metabolized”; in data set [6], “Compound metabolized”. Besides, the “Bacterial Biotransformation” value is recorded as “Compound metabolized” in data set [7]; “Compound metabolized” in data set [8]; “Compound NOT metabolized” in data set [9]; “Compound NOT metabolized” in [10]; “Compound NOT metabolized” in data set [11]; “Compound metabolized” in [12]. For the same compound, the “Bacterial Biotransformation” value in data set [13] was “Compound metabolized”; in [14], “Compound NOT metabolized”; in data set [15] it was “Compound NOT metabolized”; in data set [16] it was “Compound metabolized”; in [17], “Compound NOT metabolized”; in [18] it was “Compound metabolized”. Besides, the “Bacterial Biotransformation” value in [19] is “Compound metabolized”; in data set [20], “Compound NOT metabolized”.

`O=C1CC2(CCCC2)CC(=O)N1CCCCN1CCN(c2ncccn2)CC1` [BUSPIRONE]: the “Bacterial Biotransformation” value in data set [1] is recorded as “Compound NOT metabolized”; in [2] it was “Compound metabolized”; in data set [3] it was “Compound NOT metabolized”; in [4] it was “Compound metabolized”; in [5], “Compound metabolized”; in data set [6], “Compound NOT metabolized”. In addition, the “Bacterial Biotransformation” value in [7] is reported as “Compound NOT metabolized”; in [8], “Compound metabolized”; in [9], “Compound NOT metabolized”; in data set [10], “Compound NOT metabolized”; in [11], “Compound metabolized”; in data set [12] it was “Compound NOT metabolized”. In addition, the “Bacterial Biotransformation” value in data set [13], in [14], in [15], in data set [16], in [17] and in data set [18] was “Compound NOT metabolized” in each case. In addition, the “Bacterial Biotransformation” value in [19] is recorded as “Compound metabolized”; in [20] it was “Compound NOT metabolized”.

Consider `CCCC(C)(COC(N)=O)COC(=O)NC(C)C` (stereo not given) [CARISOPRODOL], for which the “Bacterial Biotransformation” value in data set [1] is “Compound NOT metabolized”; in [2], “Compound metabolized”; in [3] it was “Compound metabolized”; in data set [4] it was “Compound NOT metabolized”; in data set [5], “Compound metabolized”; in data set [6], “Compound metabolized”. Besides, the “Bacterial Biotransformation” value in data set [7], in data set [8], in data set [9], in [10], in data set [11] and in [12] was “Compound metabolized” throughout. Besides, the “Bacterial Biotransformation” value in data set [13] is “Compound metabolized”; in data set [14], “Compound NOT metabolized”; in [15] it was “Compound NOT metabolized”; in data set [16] it was “Compound metabolized”; in [17] it was “Compound metabolized”; in [18], “Compound metabolized”. Further, the “Bacterial Biotransformation” value is recorded as “Compound NOT metabolized” in data set [19] and “Compound metabolized” in [20].

Turning to `COc1ccccc1OCCNCC(O)COc1cccc2[nH]c3ccccc3c12` (stereo not given) [CARVEDILOL], the “Bacterial Biotransformation” value in data set [1] is “Compound NOT metabolized”; in data set [2], “Compound metabolized”; in data set [3], “Compound metabolized”; in data set [4], “Compound metabolized”; in [5], “Compound metabolized”; in data set [6], “Compound metabolized”. For the same compound, the “Bacterial Biotransformation” value in data set [7] is recorded as “Compound metabolized”; in data set [8] it was “Compound metabolized”; in data set [9], “Compound NOT metabolized”; in data set [10], “Compound NOT metabolized”; in data set [11], “Compound metabolized”; in data set [12], “Compound metabolized”. Further, the “Bacterial Biotransformation” value in data set [13] is listed as “Compound NOT metabolized”; in [14], “Compound NOT metabolized”; in [15] it was “Compound NOT metabolized”; in data set [16], “Compound metabolized”; in data set [17] it was “Compound NOT metabolized”; in data set [18], “Compound metabolized”. Further, the entries for the “Bacterial Biotransformation” value in data set [19] and in [20] were “Compound metabolized” and “Compound NOT metabolized”, respectively.

As to `CN1CCC[C@@H]1CCO[C@](C)(c1ccccc1)c1ccc(Cl)cc1.O=C(O)/C=C/C(=O)O` [CLEMASTINE FUMARATE], the “Bacterial Biotransformation” value in data set [1] is listed as “Compound NOT metabolized”; in [2], “Compound metabolized”; in [3], “Compound metabolized”; in data set [4], “Compound metabolized”; in data set [5] it was “Compound NOT metabolized”; in data set [6], “Compound NOT metabolized”. Further, the “Bacterial Biotransformation” value in data set [7] is reported as “Compound NOT metabolized”; in data set [8] it was “Compound metabolized”; in data set [9], “Compound metabolized”; in [10] it was “Compound NOT metabolized”; in [11], “Compound metabolized”; in data set [12], “Compound metabolized”. In addition, the “Bacterial Biotransformation” value in data set [13], in data set [14], in [15], in data set [16], in data set [17] and in [18] was “Compound NOT metabolized” each time. In addition, the “Bacterial Biotransformation” value in [19] is on record as “Compound metabolized”; in data set [20] it was “Compound NOT metabolized”.
